Data as given in US4293504A, “Process for preparing optically active α-cyano-3-(4-halogenophenoxy)-benzyl 2-(4-chlorophenyl)isovalerate” (Sumitomo Chemical Company, Limited, priority 1979, dated 1981).
≈ marks a conversion by molar mass, not a printed value.

Assays:
[1] = test system: female adult CSMA-strain houseflies; assay: Test Example 2: topical application to thorax, mortality after 24 hours; assay type: in vivo, housefly; conditions: for Relative Efficacy (reference compound: 100): from LD50, housefly, reference = racemate with same X; for LD50 (median lethal dose): topical, 0.5 μl acetone solution to thorax, 24 hours
Experimental: (§1) In the following test examples, the "racemate" (conventional product) of each of the compounds of the formula (I) was formulated in the same procedures as in each test example and then used as a reference compound.
The compounds of this invention, (1), (2), (3), (4) and (5) were diluted with acetone to a predetermined concentration, and 0.5 μl of each solution was topically applied to thorax of female adult CSMA-strain houseflies with a microsyringe. The flies were placed in a plastic cup having a diameter of 12 cm containing therein cotton absorbent impregnated with 3% sugar water. 24 hours later, the alive and dead was evaluated to determine the LD50 (median lethal dose) (μg/insect).

[2] = test system: tobacco cutworm; assay: whole plant or invertebrate; assay type: in vivo; conditions: for LC50: 48 h, read-out: LC50 (median lethal concentration); for Relative Efficacy (reference compound: 100): from LC50, tobacco cutworm, reference = racemate with same X
Description: (§2) 10 parts of each of the compounds of this invention, (1), (2), (3), (4) and (5) was mixed with 15 parts of Sorpol 3005x (a registered trademark of Toho Chemical Co., Ltd.) and 75 parts of xylene, and the mixture was thoroughly stirred to provide a 10% emulsifiable concentrate.
as §1
Each of the emulsifiable concentrates prepared from the compounds of this invention, (1), (2), (3), (4) and (5) in the procedures described in Formulation Example 1 was diluted with water to a predetermined concentration, and a sticker containing 20% of an alkylphenol polyethylene glycol ether and 12% of a salt of lignin sulfonic acid was added to the solution in an amount of 1 ml per 3,000 ml of the solution. […] Ten 3rd-instar larvae of tobacco cutworm were further immersed in each solution for 10 seconds. The leaves and cutworms were air-dried and placed in each plastic cup having a diameter of 10 cm and a height of 4 cm. 48 hours later, the alive and dead was evaluated to obtain the LC50 (median lethal concentration) (ppm).

[3] = test system: adult green rice leafhoppers; assay: Test Example 3: dust applied to rice seedlings, mortality after 24 hours; assay type: in vivo, green rice leafhopper; conditions: 0.5% dust, 2 kg/10 ares, 200 mmHg
Experimental: 0.5 part of each of the compounds of this invention, (1), (2), (3), (4) and (5) was dissolved in 20 parts of acetone. To the solution was added 99.5 parts of 300 mesh clay, and the mixture was thoroughly stirred. The acetone was distilled off to provide a 0.5% dust.
The dusts prepared from the compounds of this invention, (1), (2), (3), (4) and (5) in the procedures described in Formulation Example 2 were applied to rice seedlings planted in each 3 inch pot and 20 days old after seeding. A bell-jar duster was used to apply each dust at a pressure of 200 mmHg at a rate of 2 kg/10 ares. After the treatment, each pot was enclosed with a metal screen cage in which about 30 adult green rice leafhoppers were released.

[4] = test system: carmine mites; assay: Test Example 4: emulsifiable concentrate applied to mite-infested potted kidney beans; assay type: in vivo, carmine mite; conditions: 10% emulsifiable concentrate diluted 500-fold, 10 ml/pot; 10 days
Experimental: as §2
10 to 15 female adult carmine mites were placed on each leaf of potted kidney beans (2-leaf stage) 9 days old after seeding. After standing in a constant temperature room at 27° C. for a week, a lot of mites in various growth stages were observed on the beans. Each of the emulsifiable concentrates prepared from the compounds of this invention (1) and (2) in the procedures described in Formulation Example 1 was diluted 500-fold with water and applied to the beans on a turntable at a rate of 10 ml/pot.

[5] = test system: harmful insects and/or mites; assay: Insecticidal and/or acaricidal activity of optical isomers (general statement); assay type: in vivo; conditions: Aα-isomer, X = F versus other halogens

Structure (SMILES): CC(C)C(C(=O)OC(C#N)c1cccc(Oc2ccc(Cl)cc2)c1)c1ccc(Cl)cc1 (racemic) [(b), reference compound]
- Relative Efficacy (reference compound: 100) [1]: 100
- LD50 (median lethal dose) [1]: 0.062 μg/insect
- LC50 [2]: 15.2 µg/mL (≈ 33.5 µM)
- Relative Efficacy (reference compound: 100) [2]: 100

Structure (SMILES): CC(C)C(C(=O)OC(C#N)c1cccc(Oc2ccc(Br)cc2)c1)c1ccc(Cl)cc1 (racemic) [(c), reference compound]
- Relative Efficacy (reference compound: 100) [1]: 100
- LD50 (median lethal dose) [1]: 0.080 μg/insect
- LC50 [2]: 20 µg/mL (≈ 40.1 µM)
- Relative Efficacy (reference compound: 100) [2]: 100

Structure (SMILES): CC(C)C(C(=O)OC(C#N)c1cccc(Oc2ccc(F)cc2)c1)c1ccc(Cl)cc1 (racemic) [Reference Compound (a), reference compound]
- Relative Efficacy (reference compound: 100) [1]: 100
- LD50 (median lethal dose) [1]: 0.041 μg/insect
- LC50 [2]: 5 µg/mL (≈ 11.4 µM)
- Relative Efficacy (reference compound: 100) [2]: 100

Structure (SMILES): CC(C)[C@H](C(=O)OC(C#N)c1cccc(Oc2ccc(F)cc2)c1)c1ccc(Cl)cc1 (stereo partly shown) [Compound (1)]
- Relative Efficacy (reference compound: 100) [1]: 216
- LD50 (median lethal dose) [1]: 0.019 μg/insect
- alive and dead evaluation of leafhoppers [3]: completely killed
- LC50 [2]: 2.3 µg/mL (≈ 5.25 µM)
- Relative Efficacy (reference compound: 100) [2]: 217
- damage to mite-released kidney beans [4]: little damaged

Structure (SMILES): CC(C)[C@H](C(=O)O[C@H](C#N)c1cccc(Oc2ccc(F)cc2)c1)c1ccc(Cl)cc1 [Compound (2)]
- Relative Efficacy (reference compound: 100) [1]: 410
- LD50 (median lethal dose) [1]: 0.010 μg/insect
- alive and dead evaluation of leafhoppers [3]: completely killed
- LC50 [2]: 1.2 µg/mL (≈ 2.74 µM)
- Relative Efficacy (reference compound: 100) [2]: 417
- damage to mite-released kidney beans [4]: little damaged
- activity compared with other halogen-substituted compounds [5]: stronger activity than other halogen-substituted compounds

Structure (SMILES): CC(C)[C@H](C(=O)O[C@H](C#N)c1cccc(Oc2ccc(Cl)cc2)c1)c1ccc(Cl)cc1 [Compound (3)]
- Relative Efficacy (reference compound: 100) [1]: 388
- LD50 (median lethal dose) [1]: 0.016 μg/insect
- alive and dead evaluation of leafhoppers [3]: completely killed
- LC50 [2]: 3.9 µg/mL (≈ 8.58 µM)
- Relative Efficacy (reference compound: 100) [2]: 390

Structure (SMILES): CC(C)[C@H](C(=O)OC(C#N)c1cccc(Oc2ccc(Br)cc2)c1)c1ccc(Cl)cc1 (stereo partly shown) [Compound (4)]
- Relative Efficacy (reference compound: 100) [1]: 229
- LD50 (median lethal dose) [1]: 0.035 μg/insect
- alive and dead evaluation of leafhoppers [3]: completely killed
- LC50 [2]: 9.5 µg/mL (≈ 19 µM)
- Relative Efficacy (reference compound: 100) [2]: 211

Structure (SMILES): CC(C)[C@H](C(=O)O[C@H](C#N)c1cccc(Oc2ccc(Br)cc2)c1)c1ccc(Cl)cc1 [Compound (5)]
- Relative Efficacy (reference compound: 100) [1]: 444
- LD50 (median lethal dose) [1]: 0.018 μg/insect
- alive and dead evaluation of leafhoppers [3]: completely killed
- LC50 [2]: 4.2 µg/mL (≈ 8.42 µM)
- Relative Efficacy (reference compound: 100) [2]: 476
